{
  "source": "patent US20120213706A1",
  "about": "“RECONSTITUTED TUMOR MICROENVIRONMENT FOR ANTICANCER DRUG DEVELOPMENT” (UNIVERSITY OF MEDICINE AND DENTISTRY OF NEW JERSEY, priority 2009, published 2012)",
  "format_in_all_cases": "cell-based",
  "key": {"[1]": {"tested_on": "tumor cells in the reconstituted tumor microenvironment", "assay": "growth of tumor cells in the reconstituted tumor microenvironment", "conditions": "tumor cells established within the reconstituted tumor microenvironment", "procedure": "The three cell system in Examples 1 and 2 is prepared and used to test standard chemotherapeutic agents for activity against cancer cell lines, such as the breast cancer cell lines MDAMB231 and MDAMB435 representing basal subtype and MCF7 and SKBR3 representing luminal subtype of breast cancer. Reconstitution is carried out in 96 well plates by co-culturing a fixed number of tumor cells and carcinoma-associated fibroblast-like cells plus TAMs either alone or admixed with differing amounts of cells representing cell types in tumor milieu. Tumor growth is monitored at these sites in accordance with the foregoing. As the tumor cells express luciferase, tumor growth is monitored even at early time points by bioluminescence imaging following injection of D-luciferin on a Kodak MM2000 Imager. Again, all the tumor cell lines tested in culture are tested in this assay.\nThe reconstituted system is used to identify synergistic combinations using a panel of standard chemotherapeutic agents and Jak/STAT3 inhibitors. The Chou Talalay combination index analysis is used and the data analyzed using Calcusyn software (Biosoft ver 3). […] Growth of tumors is monitored by bioluminescence imaging using a KODAK […] Imaging station as described earlier. […]"}, "Jak/Stat3 signaling": {"tested_on": "Jak/Stat3 signaling", "assay": "Jak/Stat3 signaling in tumor cells following treatment", "conditions": "following dehydrodidemnin B treatment"}, "[2]": {"tested_on": "FSP positive tumor stroma", "assay": "FSP positive tumor stroma after treatment", "conditions": "fibroblast surface protein (FSP) as marker for tumor stroma"}, "tumor cells": {"tested_on": "tumor cells", "assay": "tumor cell demise following treatment", "conditions": "following dehydrodidemnin B treatment", "text": "Accordingly, the instant invention is useful in drug screening assays for known and novel therapeutics targeting either the tumor cell or components of the tumor cell environment."}},
  "note": "Numbered stars: 1 amine (or outer) side, 2 acyl side, 3 side chain; on linkers, the order of the positions; unused ones are H or OH. Bridge positions count the residues as written; N and C are the ends. Square brackets hold non-standard residues; d marks the D form. Peptide text beside a SMILES is read from it. * marks the point of attachment. X1 = CC[C@H](C)[C@@H](N[*:1])[C@@H](O)CC(=O)O[C@H](C(=O)[C@H](C)C(=O)[*:2])C(C)C; NMeY = CN[C@@H](Cc1ccc(O)cc1)C(=O)O; dNMeL = CN[C@H](CC(C)C)C(=O)O; Pyruvoyl = CC(=O)C(=O)*",
  "data": [
    {"compound": "CC[C@H](C)[C@H]1NC(=O)[C@@H](NC(=O)[C@@H](CC(C)C)N(C)C(=O)[C@@H]2CCCN2C(=O)C(C)=O)[C@@H](C)OC(=O)[C@H](Cc2ccc(OC)cc2)N(C)C(=O)[C@@H]2CCCN2C(=O)[C@H](CC(C)C)NC(=O)[C@@H](C)C(=O)[C@H](C(C)C)OC(=O)C[C@@H]1O", "note": "[dehydrodidemnin B] (Pyruvoyl-P[dNMeL]T[X1]LP[NMeY](Me); ester 3-C)", "values": [
      {"measurement": "growth of tumor cells", "setting": "[1]", "result": "can be inhibited"},
      {"measurement": "growth of tumor cells", "setting": "[1]; listed as Dehydrodidemnin B", "result": "inhibited"},
      {"measurement": "Jak/Stat3 signaling in tumor cells", "setting": "Jak/Stat3 signaling", "result": "inhibition of Jak/Stat3 signaling"},
      {"measurement": "FSP positive tumor stroma", "setting": "[2]", "result": "decreased FSP positive tumor stroma"},
      {"measurement": "fate of tumor cells after inhibition of Jak/Stat3 signaling", "setting": "tumor cells", "result": "led to the demise of tumor cells"}
    ]}
  ]
}
